Assays:
[1] = molecular target: T1, DDR1 kinase in DDR1-expressing U2OS cells (Homo sapiens, UniProt Q08345); assay: DDR1 kinase inhibitory effect in DDR1-expressing U2OS cells (PathHunter, type I collagen stimulation); assay type: cell-based; settings: type I collagen 50 μg/mL, 10% FBS, read-out: DDR-1 IC50
T1 construct: host or cells: U2OS
Protocol: Test compounds in DMSO were prepared at 10 mM and diluted with DMSO to final concentrations of 1000, 100, 10, 1, and 0.1 μM. These solutions were diluted further with E-MEM medium (Fujifilm Wako Pure Chemical Industries, 051-07615) containing 10% fetal bovine serum (FBS, Gibco, 10270106) to 60,000, 6,000, 600, 60, 6, and 0.6 nM to obtain test sample solutions.
DDR1-expressing U2OS cells (DiscoverX, 93-0894C3) suspended at 2.5×10^5 cells/mL in 10% FBS+E-MEM medium were seeded in 384-well plates (DiscoverX, 92-0013) in 20 μL portions and cultured overnight at 37° C. and 5% CO2.
The next day, the test sample solutions as prepared were added at 5 μL/well to final concentrations of 10,000, 1,000, 100, 10, 1, and 0.1 nM. After incubation at 37° C. and 5% CO2 for 1 hour, type I collagen (Nitta Gelatin, 631-00771) was added at 5 μL/well to a final concentration of 50 μg/mL, and cultured overnight at 37° C. and 5% CO2.
The next day, the plate was left at room temperature for 1 hour, after which 5 μL/well of detection solution was added according to the instruction manual for the PathHunter (registered trademark) Detection Kit (DiscoverX, 93-0001). […] The test was performed in duplicate.

[2] = system: anti-glomerular basement membrane antibody-induced nephritis model; assay: In vivo efficacy study using anti-glomerular basement membrane antibody-induced nephritis model; design: species or system WKY/NCrlCrlj rats; settings: rat, 24-hour urine
Protocol: The test compound was weighed and suspended in 0.5% methylcellulose (Shin-Etsu Chemical Co., Ltd.)+99.5% Otsuka distilled water (Otsuka Pharmaceutical Factory) to prepare a test sample solution for administration. 300 μL of phosphate buffered saline (Wako, 045-29795) containing 33.3 μg/mL anti-glomerular basement membrane antibody (Chondrex, 70221) was intravenously administered into the tail vein of WKY/NCrlCrlj rats (7-week-old males). 7 days after, the test sample was administered twice a day for 7 days, and the rats were moved to a metabolism/urine collection cage from the 6th to 7th days of the starting of the administration, and the 24-hour urine was collected. The weight of the collected urine was measured. 150 μL of urine was transferred to a sample cup (650-M, BMBio ST). The albumin concentration in urine was measured using a JCA-BM6050 automatic analyzer (JEOL). The amount of albumin in urine was determined with correction for the measured urine weight. The amounts of albumin in urine in the group without administration of anti-glomerular basement membrane antibody and the group with administration of vehicle were set at 0% and 100%, respectively, and the ratio of the amount of albumin in urine in the group administered with the test compound was calculated.

DDR1 protein = molecular target: T2, DDR1 protein (Homo sapiens, UniProt Q08345); assay: Evaluation of DDR1 kinase inhibitory activity (LANCE Ultra TR-FRET); assay type: biochemical; settings: DDR1 protein 0.5 nM, ATP 100 μM, 2 hours at room temperature; read-out: DDR-1 IC50
T2 construct: purchased Carna Biosciences 08-113
Protocol: The test was performed in duplicate.

[3] = dose 50 mg/kg twice a day for 7 days
[4] = dose 10 mg/kg twice a day for 7 days

T1 sequence (Q08345 19-913): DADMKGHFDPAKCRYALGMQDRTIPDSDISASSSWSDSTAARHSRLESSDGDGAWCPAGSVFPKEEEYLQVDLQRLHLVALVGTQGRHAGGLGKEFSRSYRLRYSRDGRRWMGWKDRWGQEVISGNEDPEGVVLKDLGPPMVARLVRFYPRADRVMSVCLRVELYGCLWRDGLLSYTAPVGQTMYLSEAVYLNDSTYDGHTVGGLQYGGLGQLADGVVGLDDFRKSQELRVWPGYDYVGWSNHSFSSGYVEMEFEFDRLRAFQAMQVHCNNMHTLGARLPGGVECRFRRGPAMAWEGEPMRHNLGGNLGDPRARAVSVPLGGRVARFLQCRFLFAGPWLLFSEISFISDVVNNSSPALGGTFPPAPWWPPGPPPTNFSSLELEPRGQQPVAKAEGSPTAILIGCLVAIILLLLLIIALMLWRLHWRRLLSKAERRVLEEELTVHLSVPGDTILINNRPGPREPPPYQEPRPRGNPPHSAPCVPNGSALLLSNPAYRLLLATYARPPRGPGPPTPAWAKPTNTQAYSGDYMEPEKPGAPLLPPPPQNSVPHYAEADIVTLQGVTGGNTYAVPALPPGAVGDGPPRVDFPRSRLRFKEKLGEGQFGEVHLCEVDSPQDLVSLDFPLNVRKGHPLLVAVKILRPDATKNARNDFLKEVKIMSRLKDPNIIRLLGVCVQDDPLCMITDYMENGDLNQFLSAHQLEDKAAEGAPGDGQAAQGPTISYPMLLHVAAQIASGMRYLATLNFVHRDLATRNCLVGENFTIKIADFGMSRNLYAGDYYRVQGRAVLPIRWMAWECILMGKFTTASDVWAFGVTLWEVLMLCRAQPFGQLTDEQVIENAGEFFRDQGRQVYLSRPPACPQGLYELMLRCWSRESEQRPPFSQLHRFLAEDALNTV
T2 sequence (Q08345 19-876 isoform Q08345-2 limits assumed): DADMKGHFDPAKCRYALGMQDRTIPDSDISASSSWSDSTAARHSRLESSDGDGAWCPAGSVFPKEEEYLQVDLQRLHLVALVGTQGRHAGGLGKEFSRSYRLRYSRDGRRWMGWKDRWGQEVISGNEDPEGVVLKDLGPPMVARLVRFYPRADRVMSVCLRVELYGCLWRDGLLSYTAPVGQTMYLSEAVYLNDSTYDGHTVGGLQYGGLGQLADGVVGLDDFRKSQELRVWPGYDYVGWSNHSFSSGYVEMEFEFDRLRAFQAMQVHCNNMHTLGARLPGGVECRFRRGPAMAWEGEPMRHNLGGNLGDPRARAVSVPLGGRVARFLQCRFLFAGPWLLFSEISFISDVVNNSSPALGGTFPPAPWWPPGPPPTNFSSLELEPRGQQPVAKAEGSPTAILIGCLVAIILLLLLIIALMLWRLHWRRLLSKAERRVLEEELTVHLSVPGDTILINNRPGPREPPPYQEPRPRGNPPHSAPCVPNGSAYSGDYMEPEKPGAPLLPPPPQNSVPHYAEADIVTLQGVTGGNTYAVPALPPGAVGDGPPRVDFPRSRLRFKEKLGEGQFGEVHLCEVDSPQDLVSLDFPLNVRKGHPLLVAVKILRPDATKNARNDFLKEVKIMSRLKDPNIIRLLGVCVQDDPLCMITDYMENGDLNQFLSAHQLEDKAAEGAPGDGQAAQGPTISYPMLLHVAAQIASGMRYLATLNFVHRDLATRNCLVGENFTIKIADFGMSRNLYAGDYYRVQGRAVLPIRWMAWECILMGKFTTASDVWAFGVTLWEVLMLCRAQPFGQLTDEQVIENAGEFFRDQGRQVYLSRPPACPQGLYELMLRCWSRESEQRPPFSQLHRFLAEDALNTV

For `O=C(N[C@H]1C[C@H](OC(F)(F)F)C[C@@H]1O)c1ccc(OC(F)F)c(C#Cc2cncnc2)c1` [Example 1, 4-(Difluoromethoxy)-N-[(1S,2S,4S)-2-hydroxy-4-(trifluoromethoxy)cyclopentyl]-3-[(pyrimidin-5-yl)ethynyl]benzamide], the IC50 [1] was 29 nM, the “Urinary albumin (% of vehicle-administered group)” value [2, 3] was 70 % of vehicle-administered grou and the IC50 (DDR1 protein) was 7 nM.
For `Nc1ncc(C#Cc2cc(C(=O)N[C@H]3C[C@H](OC(F)(F)F)C[C@@H]3O)ccc2OC(F)F)cn1` [Example 3, 3-[2-(2-Aminopyrimidin-5-yl)ethynyl]-4-(difluoromethoxy)-N-[(1S,2S,4S)-2-hydroxy-4-(trifluoromethoxy)cyclopentyl]benzamide], the IC50 [1] was 3.6 nM, the “Urinary albumin (% of vehicle-administered group)” value [2, 3] was 78 % of vehicle-administered grou and the IC50 (DDR1 protein) was 0.86 nM.
`Nc1cnc(C#Cc2cc(C(=O)N[C@H]3C[C@H](OC(F)(F)F)C[C@@H]3O)ccc2OC(F)F)cn1` [Example 4, 3-[2-(5-Aminopyrazin-2-yl)ethynyl]-4-(difluoromethoxy)-N-[(1S,2S,4S)-2-hydroxy-4-(trifluoromethoxy)cyclopentyl]benzamide] was tested, and the IC50 [1] was 18 nM, the “Urinary albumin (% of vehicle-administered group)” value ([2]; dose 25 mg/kg twice a day for 7 days) was 69 % of vehicle-administered grou and the IC50 (DDR1 protein) was 0.56 nM.
`COc1nc(N)ncc1C#Cc1cc(C(=O)N[C@H]2C[C@H](OC(F)(F)F)C[C@@H]2O)ccc1OC(F)F` [Example 5, 3-[2-(2-Amino-4-methoxypyrimidin-5-yl)ethynyl]-4-(difluoromethoxy)-N-[(1S,2S,4S)-2-hydroxy-4-(trifluoromethoxy)cyclopentyl]benzamide] was tested, and the IC50 [1] was 1.8 nM, the “Urinary albumin (% of vehicle-administered group)” value [2, 4] was 57 % of vehicle-administered grou and the IC50 (DDR1 protein) was 0.25 nM.
For `Cn1cc(C#Cc2cc(C(=O)N[C@H]3C[C@H](OC(F)(F)F)C[C@@H]3O)ccc2OC(F)F)cn1` [Example 6, 4-(Difluoromethoxy)-N-[(1S,2S,4S)-2-hydroxy-4-(trifluoromethoxy)cyclopentyl]-3-[2-(1-methyl-1H-pyrazol-4-yl)ethynyl]benzamide], the IC50 [1] was 58 nM, the “Urinary albumin (% of vehicle-administered group)” value ([2]; dose 5 mg/kg twice a day for 7 days) was 72 % of vehicle-administered grou and the IC50 (DDR1 protein) was 0.39 nM.
In the case of `Nc1cnc(C#Cc2cc(C(=O)N[C@H](CO)CCOC(F)(F)F)ccc2OC(F)F)cn1` [Example 7, 3-[2-(5-Aminopyrazin-2-yl)ethynyl]-4-(difluoromethoxy)-N-[(2S)-1-hydroxy-4-(trifluoromethoxy)butan-2-yl]benzamide], the IC50 [1] is reported as 50 nM, the “Urinary albumin (% of vehicle-administered group)” value ([2]; dose 30 mg/kg twice a day for 7 days) is reported as 69 % of vehicle-administered grou and the IC50 (DDR1 protein) is reported as 4.4 nM.
In the case of `Nc1cnc(/C(F)=C/c2cc(C(=O)N[C@H]3C[C@H](OC(F)(F)F)C[C@@H]3O)ccc2OC(F)F)cn1` [Example 10, 3-[(1Z)-2-(5-Aminopyrazin-2-yl)-2-fluoroethenyl]-4-(difluoromethoxy)-N-[(1S,2S,4S)-2-hydroxy-4-(trifluoromethoxy)cyclopentyl]benzamide], the IC50 [1] is reported as 72 nM, the “Urinary albumin (% of vehicle-administered group)” value [2, 4] is reported as 69 % of vehicle-administered grou and the IC50 (DDR1 protein) is reported as 1.2 nM.
For `NC(=O)c1ncc2cc(-c3cc(C(=O)N[C@H]4CCCC[C@@H]4O)ccc3C(F)(F)F)ccn12` [Example 14, 7-(5-{[(1S,2S)-2-Hydroxycyclohexyl]carbamoyl}-2-(trifluoromethyl)phenyl)imidazo[1,5-a]pyridine-3-carboxamide], the IC50 [1] was 83 nM, the “Urinary albumin (% of vehicle-administered group)” value [2, 3] was 76 % of vehicle-administered grou and the IC50 (DDR1 protein) was 2.5 nM.
`Nc1ncc(/C(F)=C/c2cc(C(=O)N[C@H]3CC(F)(F)CC[C@@H]3O)ccc2OC(F)F)cn1` [Example 37, 3-[(1Z)-2-(2-Aminopyrimidin-5-yl)-2-fluoroethenyl]-N-[(1S,2S)-5,5-difluoro-2-hydroxycyclohexyl]-4-(difluoromethoxy)benzamide] gave an IC50 [1] of 40 nM and an IC50 (DDR1 protein) of 15 nM.
`Nc1ncc(/C(F)=C/c2cc(C(=O)N[C@H]3CCCC[C@@H]3O)ccc2OC(F)F)cn1` [Example 38, 3-[(1Z)-2-(2-Aminopyrimidin-5-yl)-2-fluoroethenyl]-4-(difluoromethoxy)-N-[(1S,2S)-2-hydroxycyclohexyl]benzamide] was tested, and the IC50 [1] was 99 nM and the IC50 (DDR1 protein) was 12 nM.
Molecule `Nc1ncc(/C=C(\F)c2cc(C(=O)N[C@H]3C[C@H](OC(F)(F)F)C[C@@H]3O)ccc2OC(F)F)cn1` [Example 39, 3-[(1Z)-2-(2-Aminopyrimidin-5-yl)-1-fluoroethenyl]-4-(difluoromethoxy)-N-[(1S,2S,4S)-2-hydroxy-4-(trifluoromethoxy)cyclopentyl]benzamide] has an IC50 [1] of 3.9 nM and an IC50 (DDR1 protein) of 0.39 nM.
`Nc1ncc(/C=C(\F)c2cc(C(=O)N[C@H]3CC4(CC4)C[C@@H]3O)ccc2OC(F)F)cn1` [Example 40, 3-[(1Z)-2-(2-Aminopyrimidin-5-yl)-1-fluoroethenyl]-4-(difluoromethoxy)-N-[(5S,6S)-6-hydroxyspiro[2.4]heptan-5-yl]benzamide] gave an IC50 [1] of 5.6 nM and an IC50 (DDR1 protein) of 0.48 nM.
In the case of `NC(=O)c1ncc2cc(-c3cc(C(=O)N[C@H]4CC(F)(F)CC[C@@H]4O)cnc3C(F)(F)F)ccn12` [Example 41, 5-{3-Carbamoylimidazo[1,5-a]pyridin-7-yl}-N-[(1S,2S)-5,5-difluoro-2-hydroxycyclohexyl]-6-(trifluoromethyl)pyridine-3-carboxamide], the IC50 [1] is reported as 350 nM and the IC50 (DDR1 protein) is reported as 60 nM.
For `CCc1ccc(C(=O)N[C@H]2C[C@H](OC(F)(F)F)C[C@@H]2O)cc1NC(=O)c1cncc(OCC2CC2)c1` [Example 42, 5-(Cyclopropylmethoxy)-N-(2-ethyl-5-{[(1S,2S,4S)-2-hydroxy-4-(trifluoromethoxy)cyclopentyl]carbamoyl}phenyl)pyridine-3-carboxamide], the IC50 [1] was 54 nM and the IC50 (DDR1 protein) was 1.6 nM.
Molecule `CCc1ccc(C(=O)N[C@H](CO)CCOC(F)(F)F)cc1NC(=O)c1cncc(OCC2CC2)c1` [Example 43, 5-(Cyclopropylmethoxy)-N-(2-ethyl-5-{[(2S)-1-hydroxy-4-(trifluoromethoxy)butan-2-yl]carbamoyl}phenyl)pyridine-3-carboxamide] has an IC50 [1] of 240 nM and an IC50 (DDR1 protein) of 68 nM.
With `CCc1ccc(C(=O)N[C@H](CO)CCOC(F)(F)F)cc1NC(=O)c1cnc(NCC2CC2)s1` [Example 44, 2-[(Cyclopropylmethyl)amino]-N-(2-ethyl-5-{[(2S)-1-hydroxy-4-(trifluoromethoxy)butan-2-yl]carbamoyl}phenyl)-1,3-thiazole-5-carboxamide] the IC50 [1] was 15 nM and the IC50 (DDR1 protein) was 9.4 nM.
`CCc1ccc(C(=O)N[C@H]2C[C@H](OC(F)(F)F)C[C@@H]2O)cc1NC(=O)c1cnc(NCC2CC2)s1` [Example 45, 2-[(Cyclopropylmethyl)amino]-N-(2-ethyl-5-{[(1S,2S,4S)-2-hydroxy-4-(trifluoromethoxy)cyclopentyl]carbamoyl}phenyl)-1,3-thiazole-5-carboxamide] was tested, and the IC50 [1] was 6.8 nM and the IC50 (DDR1 protein) was 1.3 nM.
`CCc1ccc(C(=O)N[C@H]2C[C@H](OC(F)(F)F)C[C@@H]2O)cc1NC(=O)c1cnc(C2CC2)s1` [Example 46, 2-Cyclopropyl-N-(2-ethyl-5-{[(1S,2S,4S)-2-hydroxy-4-(trifluoromethoxy)cyclopentyl]carbamoyl}phenyl)-1,3-thiazole-5-carboxamide] was tested, and the IC50 [1] was 44 nM and the IC50 (DDR1 protein) was 9.1 nM.
In the case of `CCc1ccc(C(=O)N[C@H](CO)CCOC(F)(F)F)cc1NC(=O)c1cnc(CC2CC2)s1` [Example 47, 2-(Cyclopropylmethyl)-N-(2-ethyl-5-{[(2S)-1-hydroxy-4-(trifluoromethoxy)butan-2-yl]carbamoyl}phenyl)-1,3-thiazole-5-carboxamide], the IC50 [1] is reported as 59 nM and the IC50 (DDR1 protein) is reported as 51 nM.

Reference: US20260242343A1, “COMPOUND SERVING AS DDR1 KINASE INHIBITOR, AND MEDICINE” (NIPPON SHINYAKU CO., LTD., priority 2022, published 2026)
